Reference: publication PMC6240685, “Strong Inhibitory Effect, Low Cytotoxicity and High Plasma Stability of Steroidal Inhibitors of N-Methyl-D-Aspartate Receptors With C-3 Amide Structural Motif” (Frontiers in Pharmacology, 2018)
Structures can show the parent of a compound that is named as a salt. Where two headings read alike, the source gives them in different places.

Assays:
HepG2 cells [1] = experiment: ROS induction (CM-H2DCFDA); type: cell-based
Procedure: (§1) (A) Hepatotoxicity provoked by compound 4 was assessed after 72 h incubation of HepG2 cells in low glucose medium (5 mM) in the presence of compound 4 (0.25–100 μM). (B) Mitochondrial toxicity was determined after 24 h incubation of HepG2 cells in either high glucose medium (25 mM) or galactose medium (10 mM) in the presence of compound 4 (2.5–150 μM). Cell viabilities were recorded in triplicates in three independent experiments and expressed as percentage of vehicle control ± SD and IC50 values were determined by GraphPad Prism software using following equation: Y = Bottom + (Top–Bottom)/(1 + 10ˆ((LogIC50-X)^∗HillSlope)), where IC50 is the concentration of compound 4 that inhibits cell viability half way between Bottom and Top plateaus, X is compound 4 concentration and HillSlope describes the steepness of the family of curves. […] (C) Concentration-dependent effect on ROS level. HepG2 cells were treated with compound 4 (0.25–100 μM) for 72 h, and then the intracellular level of total ROS in relative fluorescence units (RFU) was detected. The data are presented as the mean ± SD for at least three independent experiments and each experiment was carried out in triplicate. Final concentration of DMSO in samples was 1%. […] Single asterisks (^∗) indicate a significant difference (P < 0.05) compared to 1% DMSO control (one-way ANOVA with Dunnett’s post-test).
The effect of neurosteroids on oxidative stress was determined using general oxidative stress indicator CM-H2DCFDA (Thermo Fisher Scientific, Waltham, MA, United States) according to the manufacturer’s instructions. Briefly HepG2 cells were seeded in a 96-well plate at a density of 13,500 cells per well. After 24 h, the tested neurosteroids were added to the culture media and incubated for 72 h. Subsequently, cells were washed with HBSS, treated with 100 μL of 1 μM CM-H2DCF-DA solution in HBSS and incubated for 1 h in the dark at 37°C. Finally, cells were washed three times with HBSS and the fluorescence was measured using 495 excitation and 527 emission in fluorescence microplate reader (Cytation 3, Winooski, VT, United States). IC50 index values were determined by GraphPad Prism version 5.00 for Windows (GraphPad Software, La Jolla, CA, United States).

HepG2 cells [2] = experiment: Mitotoxicity, XTT viability in glucose vs galactose medium; conditions: for IC50: Homo sapiens, HepG2, 24 h
Procedure: as §1
(§2) HepG2 cells (ATCC®, United Kingdom) were grown in complete Minimal Essential Medium (EMEM) (5.5 mM glucose) medium, supplemented with 10% (v/v) fetal calf serum, 200 μg/mL of streptomycin, 200 U/mL of penicillin G and 4 mM glutamine. They were cultured under a humidified atmosphere containing 5% CO2 at 37°C.
(§3) The cytotoxicity of the tested compounds was assessed with use of XTT cell proliferation kit II (Roche Diagnostics GmbH, Mannheim, Germany) according to the manufacturer’s instructions. Briefly HepG2 cells were seeded in a 96-well plate at a density of 22,000 cells per well. After 24 h, the tested neurosteroids in a concentration range from 0.5 to 200 μM were added to the culture media and incubated for 72 h before the XTT dye was added. Mitochondrial toxicity was assessed in HepG2 cells using glucose and galactose conditioned media and XTT assay as a read out for cell viability. In brief, cells were seeded onto 96 well, clear bottom tissue culture plates at a density of 22,000 cells/well and left overnight to attach. Six hours prior to the neurosteroids treatment the media was replaced with 100 μL DMEM media containing either glucose (25 mM glucose; 1 mM pyruvate; 2 mM glutamine, 10% FBS) or galactose (10 mM galactose, 1 mM pyruvate, 6 mM glutamine, 10% FBS). After that, the tested neurosteroids in a concentration range from 0.5 to 200 μM were added in the fresh appropriate assay medium (glucose or galactose) and incubated for 24 h before the XTT dye was added. The XTT absorbance was recorded at 495 nm after 1 h incubation with the dye. Compounds were dissolved in DMSO to produce the stock solutions at the concentration of 10 mM, with exception of PAG, 1, 6 (5 mM), and 11 (2.5 mM). Results were expressed as percentages of change in viability compared to appropriate DMSO control. IC50 values were determined by GraphPad Prism version 5.00 for Windows (GraphPad Software, La Jolla, CA, United States). All experiments were done in triplicates in three independent experiments to check the reproducibility.

[3] = Plasma stability, rat plasma; type: in vitro ADME
GluN1/GluN2B receptors [4] = target: T1, GluN1/GluN2B receptors (Rattus norvegicus, UniProt P35439+Q00960); experiment: Patch-clamp inhibition of glutamate responses of GluN1/GluN2B receptors in transfected HEK293 cells; type: cell-based
T1 construct: expressed in transfected cells; host or cells: HEK293
T1 sequence (Q00960 27-1482, other chains not shown): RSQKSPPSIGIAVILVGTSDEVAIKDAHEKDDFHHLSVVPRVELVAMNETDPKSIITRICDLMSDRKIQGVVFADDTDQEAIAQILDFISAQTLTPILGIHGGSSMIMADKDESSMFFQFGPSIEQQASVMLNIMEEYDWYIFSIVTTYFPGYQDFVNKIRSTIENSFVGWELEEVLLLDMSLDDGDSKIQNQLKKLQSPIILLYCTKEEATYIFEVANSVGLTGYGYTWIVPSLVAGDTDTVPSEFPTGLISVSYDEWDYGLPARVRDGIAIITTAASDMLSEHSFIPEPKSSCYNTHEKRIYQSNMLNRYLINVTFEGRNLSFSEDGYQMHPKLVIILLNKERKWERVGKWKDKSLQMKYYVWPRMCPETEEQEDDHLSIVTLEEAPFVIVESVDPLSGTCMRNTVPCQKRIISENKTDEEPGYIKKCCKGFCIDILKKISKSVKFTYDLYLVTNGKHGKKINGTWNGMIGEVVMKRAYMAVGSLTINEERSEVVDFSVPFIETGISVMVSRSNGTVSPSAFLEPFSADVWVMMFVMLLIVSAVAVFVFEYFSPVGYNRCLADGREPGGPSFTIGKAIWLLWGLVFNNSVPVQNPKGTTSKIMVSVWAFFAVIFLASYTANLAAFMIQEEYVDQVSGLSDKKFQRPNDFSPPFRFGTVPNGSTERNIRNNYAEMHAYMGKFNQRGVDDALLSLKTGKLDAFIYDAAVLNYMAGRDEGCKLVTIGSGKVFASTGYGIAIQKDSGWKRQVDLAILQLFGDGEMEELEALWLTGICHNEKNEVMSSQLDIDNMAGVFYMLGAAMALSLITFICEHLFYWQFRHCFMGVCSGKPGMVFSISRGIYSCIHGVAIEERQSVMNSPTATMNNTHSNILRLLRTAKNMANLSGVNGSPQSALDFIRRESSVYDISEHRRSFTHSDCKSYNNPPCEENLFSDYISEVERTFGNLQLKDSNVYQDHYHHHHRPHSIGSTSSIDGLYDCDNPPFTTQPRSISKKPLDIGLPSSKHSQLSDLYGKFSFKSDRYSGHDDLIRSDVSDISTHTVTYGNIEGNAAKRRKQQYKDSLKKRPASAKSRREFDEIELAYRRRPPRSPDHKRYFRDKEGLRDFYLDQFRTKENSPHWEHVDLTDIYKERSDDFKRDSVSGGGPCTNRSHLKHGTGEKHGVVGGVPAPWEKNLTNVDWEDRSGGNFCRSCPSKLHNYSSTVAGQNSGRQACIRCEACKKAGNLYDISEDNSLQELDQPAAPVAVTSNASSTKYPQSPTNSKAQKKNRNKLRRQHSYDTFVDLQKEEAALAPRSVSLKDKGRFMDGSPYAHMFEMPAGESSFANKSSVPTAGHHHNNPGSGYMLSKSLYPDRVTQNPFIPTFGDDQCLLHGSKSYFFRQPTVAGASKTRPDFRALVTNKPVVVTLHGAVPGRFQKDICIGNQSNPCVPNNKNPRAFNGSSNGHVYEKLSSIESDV

HepG2 cells [5] = experiment: Hepatotoxicity, XTT viability after 72 h; type: cell-based; conditions: Homo sapiens, read-out: Hepatotoxicity IC50, 5.5 mM glucose
Procedure: Then, the cell viability (XTT assay) and reactive oxygen species (ROS) induction were evaluated.
as §1, §2, §3

[6] = Plasma stability, human plasma; type: in vitro ADME
Procedure: Then, 37.8 μL of stock solution was added to 1400 μL of human plasma, maintained at 37°C. Aliquots (50 μL) withdrawn at 0, 1, 4, 8, and 24 h were analyzed by HPLC. […] The supernatant was transferred to an autosampler vial and 1 μL was injected onto LC-MS system. The samples were analyzed with an Agilent 1260 HPLC (Agilent Technologies) coupled to ESI-TOF Agilent 6530 (Agilent Technologies) with Agilent Jet Stream Technology. Samples were separated on a Waters ACQUITY UPLC CSH Phenyl-Hexyl (100 × 2.1, 130 Å, 1.7 μm) at a flow rate 0.3 ml/min. […] The mass spectrometry instrument was operated in a negative ion mode with a voltage of +3.00 kV applied to the capillary. The temperature, the flow rate of the nitrogen drying gas, the pressure of the nitrogen nebulizing gas, and the flow rate of the sheath gas were set at 325°C, 10 l/min, 40 psi, 390°C, and 11 l/min, respectively. Results are represented as a percentage of a compound remaining in spiked human plasma.

GluN1/GluN2D receptors = target: T2, GluN1/GluN2D receptors (Rattus norvegicus, UniProt P35439+Q62645); parameters: method as in Petrovic et al., 2005; conditions: ref Petrovic et al., 2005; cited from earlier work
T2 construct: expressed in transfected cells; host or cells: HEK293

GluN1/GluN2A receptors = target: T3, GluN1/GluN2A receptors (Rattus norvegicus, UniProt P35439+Q00959); parameters: method as in Petrovic et al., 2005; conditions: ref Petrovic et al., 2005; cited from earlier work
T3 construct: expressed in transfected cells; host or cells: HEK293
T3 sequence (Q00959 23-1464, other chains not shown): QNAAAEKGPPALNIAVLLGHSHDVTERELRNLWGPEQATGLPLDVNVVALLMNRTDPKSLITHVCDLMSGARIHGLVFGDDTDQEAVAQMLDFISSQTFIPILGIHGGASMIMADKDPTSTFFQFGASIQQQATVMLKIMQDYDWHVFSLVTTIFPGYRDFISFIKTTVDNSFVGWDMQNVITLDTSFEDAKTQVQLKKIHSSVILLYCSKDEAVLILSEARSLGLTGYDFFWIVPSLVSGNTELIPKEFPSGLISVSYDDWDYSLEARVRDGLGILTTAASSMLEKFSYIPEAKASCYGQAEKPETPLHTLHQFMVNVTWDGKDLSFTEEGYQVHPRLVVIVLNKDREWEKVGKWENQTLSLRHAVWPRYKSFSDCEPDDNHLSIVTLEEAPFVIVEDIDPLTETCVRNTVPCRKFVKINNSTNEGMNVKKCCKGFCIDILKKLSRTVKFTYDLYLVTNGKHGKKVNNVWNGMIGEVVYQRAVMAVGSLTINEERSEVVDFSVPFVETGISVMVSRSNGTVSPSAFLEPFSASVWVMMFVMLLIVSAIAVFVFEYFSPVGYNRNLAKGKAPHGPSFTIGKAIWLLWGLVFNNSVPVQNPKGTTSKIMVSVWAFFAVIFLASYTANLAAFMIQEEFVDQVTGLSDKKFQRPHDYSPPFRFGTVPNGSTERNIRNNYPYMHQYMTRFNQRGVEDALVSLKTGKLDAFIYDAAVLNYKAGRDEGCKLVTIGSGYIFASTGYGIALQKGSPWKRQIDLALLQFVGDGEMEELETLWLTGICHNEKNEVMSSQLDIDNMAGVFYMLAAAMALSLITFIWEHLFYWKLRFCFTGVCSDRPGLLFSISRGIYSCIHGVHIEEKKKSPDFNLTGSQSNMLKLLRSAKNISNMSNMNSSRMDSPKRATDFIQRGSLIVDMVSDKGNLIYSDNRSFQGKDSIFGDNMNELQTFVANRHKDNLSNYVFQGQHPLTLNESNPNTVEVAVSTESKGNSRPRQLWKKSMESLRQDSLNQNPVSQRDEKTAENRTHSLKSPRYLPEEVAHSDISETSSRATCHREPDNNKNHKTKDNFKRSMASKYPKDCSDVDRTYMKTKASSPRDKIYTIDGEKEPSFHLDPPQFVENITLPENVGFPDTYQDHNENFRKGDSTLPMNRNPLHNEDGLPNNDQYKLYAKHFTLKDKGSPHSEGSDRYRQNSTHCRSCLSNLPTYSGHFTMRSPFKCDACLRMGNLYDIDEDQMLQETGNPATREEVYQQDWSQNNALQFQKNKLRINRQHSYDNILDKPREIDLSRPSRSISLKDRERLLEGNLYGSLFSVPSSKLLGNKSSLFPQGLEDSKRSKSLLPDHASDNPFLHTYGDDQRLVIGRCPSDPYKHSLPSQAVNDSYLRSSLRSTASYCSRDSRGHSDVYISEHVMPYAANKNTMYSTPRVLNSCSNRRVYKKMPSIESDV

GluN1/GluN2C receptors = target: T4, GluN1/GluN2C receptors (Rattus norvegicus, UniProt P35439+Q00961); parameters: method as in Petrovic et al., 2005; conditions: ref Petrovic et al., 2005; cited from earlier work
T4 construct: expressed in transfected cells; host or cells: HEK293
T4 sequence (Q00961 20-1237, other chains not shown): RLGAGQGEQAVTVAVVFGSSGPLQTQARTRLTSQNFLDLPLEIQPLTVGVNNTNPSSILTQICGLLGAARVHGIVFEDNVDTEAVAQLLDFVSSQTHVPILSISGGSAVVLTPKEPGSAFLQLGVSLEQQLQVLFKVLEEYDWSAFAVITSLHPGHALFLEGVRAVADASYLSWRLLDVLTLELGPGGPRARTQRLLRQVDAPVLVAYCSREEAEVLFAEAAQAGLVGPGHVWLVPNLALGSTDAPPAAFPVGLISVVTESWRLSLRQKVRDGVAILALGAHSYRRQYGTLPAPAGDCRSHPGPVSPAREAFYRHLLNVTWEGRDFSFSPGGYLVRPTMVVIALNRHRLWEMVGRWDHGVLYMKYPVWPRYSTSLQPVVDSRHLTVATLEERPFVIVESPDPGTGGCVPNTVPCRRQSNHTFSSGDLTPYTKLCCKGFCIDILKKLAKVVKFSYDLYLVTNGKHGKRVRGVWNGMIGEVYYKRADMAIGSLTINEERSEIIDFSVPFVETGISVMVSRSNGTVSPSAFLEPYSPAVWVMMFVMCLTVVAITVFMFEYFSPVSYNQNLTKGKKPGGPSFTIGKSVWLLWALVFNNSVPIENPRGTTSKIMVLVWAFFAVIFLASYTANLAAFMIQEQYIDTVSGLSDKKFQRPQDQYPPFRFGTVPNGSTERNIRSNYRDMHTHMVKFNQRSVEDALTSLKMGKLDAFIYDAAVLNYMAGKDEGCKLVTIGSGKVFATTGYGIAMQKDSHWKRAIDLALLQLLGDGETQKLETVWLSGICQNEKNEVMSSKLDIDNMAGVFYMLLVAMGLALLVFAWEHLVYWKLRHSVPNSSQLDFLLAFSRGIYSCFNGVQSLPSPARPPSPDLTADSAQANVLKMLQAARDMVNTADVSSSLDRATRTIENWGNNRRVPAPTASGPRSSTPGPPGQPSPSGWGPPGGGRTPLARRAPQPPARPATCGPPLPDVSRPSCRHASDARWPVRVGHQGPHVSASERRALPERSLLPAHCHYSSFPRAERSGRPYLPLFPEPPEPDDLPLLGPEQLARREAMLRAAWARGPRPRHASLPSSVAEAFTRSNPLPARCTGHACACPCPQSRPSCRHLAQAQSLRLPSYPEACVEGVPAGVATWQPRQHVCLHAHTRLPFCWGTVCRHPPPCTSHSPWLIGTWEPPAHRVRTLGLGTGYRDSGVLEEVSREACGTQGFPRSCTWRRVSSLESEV

GluN1/GluN2B receptors [7] = target: T1, GluN1/GluN2B receptors; parameters: method as in Petrovic et al., 2005; conditions: ref Petrovic et al., 2005; cited from earlier work
[8] = parameters: method as in Holubova et al., 2014; conditions: ref Holubova et al., 2014; cited from earlier work
[9] = parameters: method as in Rambousek et al., 2011; conditions: after bilateral NMDA-induced lesions to the hippocampus; ref Rambousek et al., 2011; cited from earlier work
[10] = parameters: method as in Kleteckova et al., 2014; conditions: induced by endothelin-1, immature rats; ref Kleteckova et al., 2014; cited from earlier work
[11] = parameters: method as in Rambousek et al., 2011; conditions: ref Rambousek et al., 2011, cited from earlier work
[12] = Homo sapiens, HepG2, 72 h; read-out: ROS induction EC50
[13] = read-out: Mitotoxicity IC50, 10 mM galactose
[14] = read-out: Mitotoxicity IC50, 25 mM glucose
[15] = as repeated in Table 2, read-out: IC50
[16] = current responses to glutamate, HEK293, IC50 from single steroid dose, Hill coefficient fixed at 1.2, read-out: IC50 ± SD
[17] = Homo sapiens, HepG2, 72 h, read-out: ROS induction EC50

| SMILES | EC50 (HepG2 cells [1]; [12]) | IC50 (HepG2 cells [2]; [13]) | IC50 (HepG2 cells [2]; [14]) | remaining at 8 h, 42.1 μg/mL ([3]; rat, plasma) | ΔGexp (GluN1/GluN2B receptors [4]) | IC50 (GluN1/GluN2B receptors [4]; [15]) | IC50 (GluN1/GluN2B receptors [4]; [16]) | melting point | IC50 (HepG2 cells [5]; 72 h, HepG2, 5.5 mM glucose) | remaining at 8 h, 42.1 μg/mL ([6]; human, plasma) | EC50 (HepG2 cells [1]; [17]) | IC50 (GluN1/GluN2B receptors [4]) | IC50 (HepG2 cells [5]; HepG2, 72 h) | further results |
| --- | --- | --- | --- | --- | --- | --- | --- | --- | --- | --- | --- | --- | --- | --- |
| C[C@@]12CCC[C@H]1[C@@H]1CC[C@@H]3C[C@H](NC(=O)C[C@H](N)C(=O)O)CC[C@]3(C)[C@H]1CC2 [Compound 10, (S)-2-amino-4-(((3R,5R,8S,9S,10S,13S,14S)-10,13-dimethylhexadecahydro-1H-cyclopenta[a]phenanthren-3-yl)amino)-4-oxobutanoic acid] | > 200 µM | > 200 µM | > 200 µM | 100% | -7.27 kcal/mol | 4.9 µM | 4.9 ± 1.7 µM | 188 to 190 °C | > 200 µM | 100% | – | – | – | – |
| CC(=O)[C@H]1CC[C@H]2[C@@H]3CC[C@@H]4C[C@H](OS(=O)(=O)O)CC[C@]4(C)[C@H]3CC[C@]12C [PAS, 20-oxo-5β-pregnan-3α-yl sulfate, reference compound] | – | > 200 µM | > 200 µM | – | – | – | – | – | – | – | > 200 µM | 24.6 ± 5.3 µM | > 200 µM | IC50 (GluN1/GluN2D receptors): 30.1 µM; IC50 (GluN1/GluN2A receptors): 50 µM; IC50 (GluN1/GluN2C receptors): 25.6 µM; IC50 (GluN1/GluN2B receptors [7]): 44.4 µM |
| CC(=O)C1CCC2C3CCC4CC(OC(=O)C(N)CCC(=O)O)CCC4(C)C3CCC12C (stereo not shown) [PAG, pregnanolone glutamate, reference compound] | – | 58 ± 7 µM | 115 ± 13 µM | – | – | – | – | – | – | – | 80 ± 11 µM | 51.7 ± 8.6 µM | 62 ± 9 µM | Glu/Gal index (fold change) (HepG2 cells [2]; 24 h, HepG2, index higher than 3 indicates potential mitochondrial toxicity): 1.97; remaining at 8 h, 42.1 μg/mL ([3]; rat plasma, 8 h, 37°C, read-out: Plasma stability (% remaining after 8 h), Rat): 82%; behaviour in elevated plus maze (EPM) and forced swimming models [8]: anxiolytic-like and antidepressant-like properties; behavioral performance in active allothetic place avoidance tasks (AAPA) [9]: improved behavioral performance; neuronal damage in the dentate gyrus and subiculum [9]: significantly ameliorated neuronal damage; remaining at 8 h, 42.1 μg/mL ([6]; human plasma, 8 h, 37°C, read-out: Plasma stability (% remaining after 8 h), Human): 94%; effect in focal cerebral ischemia model [10]: neuroprotective effect; excitotoxic damage of brain tissue and subsequent behavioral impairment ([11]; rats): reduced excitotoxic damage of brain tissue and subsequent behavioral impairment; psychotomimetic symptoms (hyperlocomotion, sensorimotor gating deficit) [11]: does not induce psychotomimetic symptoms |
| CC(C)(C)OC(=O)N[C@@H](CC(=O)N[C@@H]1CC[C@@]2(C)[C@H](CC[C@H]3[C@@H]4CCC[C@@]4(C)CC[C@@H]32)C1)C(=O)O [Compound 9, (S)-2-((tert-butoxycarbonyl)amino)-4-(((3R,5R,8S,9S,10S,13S,14S)-10,13-dimethylhexadecahydro-1H-cyclopenta[a]phenanthren-3-yl)amino)-4-oxobutanoic acid] | > 200 µM | > 200 µM | > 200 µM | 99% | -7.33 kcal/mol | 4.5 µM | 4.5 ± 0.6 µM | 154 to 157 °C | > 200 µM | 100% | – | – | – | – |
